# Activity calls are given as the source filed them. No cut-off for these calls is given here.
# Key:
# [1] = Drug concentration in male mouse plasma at 10 mg/kg, ip measured after 2 hrs by LC-MS/MS analysis; assay type: ADME, organism-based
# Mus musculus [2] = assay: In vivo activation of cAMP/PKA/CREB signaling pathway in mouse assessed as increase in PKA expression in hypothalamus at 2.5 mg/kg, ip measured after 30 mins by Western blot analysis; assay type: functional, organism-based
# Mus musculus [3] = assay: Upregulation of serotonergic synapse related genes in hypothalamus of mouse at 2.5 mg/kg, ip measured after 30 mins by KEGG enrichment analysis relative to control; assay type: functional; conditions: 0.5 h
# [4] = Cmax in male Sprague-Dawley rat at 2.5 mg/kg, ip measured after 5 to 1440 mins by LC-MS/MS analysis; assay type: ADME, organism-based; conditions: in vivo, time 5-1440 min
# [5] = Upregulation of Wnt signaling pathway related genes in hypothalamus of mouse at 2.5 mg/kg, ip measured after 30 mins by KEGG enrichment analysis relative to control; assay type: functional; conditions: 0.5 h
# Mus musculus [6] = assay: Sedative-hypnotic activity in mouse assessed as reduction in grip strength score at 50 mg/kg, ip administrated as single dose and measured after 30 mins by grip strength test; assay type: functional, organism-based
# [7] = Upregulation of focal adhesion related genes in hypothalamus of mouse at 2.5 mg/kg, ip measured after 30 mins by KEGG enrichment analysis relative to control; assay type: functional; conditions: 0.5 h
# Mus musculus [8] = assay: Sedative-hypnotic activity in mouse assessed as decrease in number of square crossing at 2.5 mg/kg, ip administrated as single dose and measured within 3 mins by open field test; assay type: functional, organism-based
# Mus musculus [9] = assay: Sedative-hypnotic activity in mouse assessed as decrease in grip strength score at 0.1 to 2.5 mg/kg, ip administrated as single dose and measured after 30 mins by grip strength test; assay type: functional, organism-based; conditions: dose 0.1-2.5 mg/kg
# Mus musculus [10] = assay: Upregulation of oxytocin signaling pathway related genes in hypothalamus of mouse at 2.5 mg/kg, ip measured after 30 mins by KEGG enrichment analysis relative to control; assay type: functional; conditions: 0.5 h
# [11] = Apparent volume of distribution in male Sprague-Dawley rat at 2.5 mg/kg, ip measured after 5 to 1440 mins by LC-MS/MS analysis; assay type: ADME, organism-based; conditions: in vivo, time 5-1440 min
# [12] = AUC (0 to t) in male Sprague-Dawley rat at 2.5 mg/kg, ip measured after 5 to 1440 mins by LC-MS/MS analysis; assay type: ADME, organism-based; conditions: in vivo, time 5-1440 min
# [13] = Upregulation of cAMP signaling pathway related genes in hypothalamus of mouse at 2.5 mg/kg, ip measured after 30 mins by KEGG enrichment analysis relative to control; assay type: functional; conditions: 0.5 h
# Mus musculus [14] = assay: Upregulation of neurodegeneration-multiple diseases pathways related genes in hypothalamus of mouse at 2.5 mg/kg, ip measured after 30 mins by KEGG enrichment analysis relative to control; assay type: functional; conditions: 0.5 h
# [15] = Upregulation of cGMP-PKG signaling pathway related genes in hypothalamus of mouse at 2.5 mg/kg, ip measured after 30 mins by KEGG enrichment analysis relative to control; assay type: functional; conditions: 0.5 h
# Mus musculus [16] = assay: Sedative-hypnotic activity in mouse assessed as latency time of first step out of center square at 50 mg/kg, ip administrated as single dose and measured after 30 mins by open field test; assay type: functional, organism-based
# Mus musculus [17] = assay: Sedative-hypnotic activity in pentobarbital-induced mouse assessed as decrease in sleep latency at 0.5 to 2.5 mg/kg, ip administrated as single dose; assay type: functional, organism-based; conditions: dose 0.5-2.5 mg/kg
# Mus musculus [18] = assay: Upregulation of pancreatic secretion related genes in hypothalamus of mouse at 2.5 mg/kg, ip measured after 30 mins by KEGG enrichment analysis relative to control; assay type: functional; conditions: 0.5 h
# [19] = Cmax in male Sprague-Dawley rat at 0.5 mg/kg, iv measured after 2 to 720 mins by LC-MS/MS analysis; assay type: ADME, organism-based; conditions: in vivo, time 2-720 min
# [20] = AUC (0 to t) in male Sprague-Dawley rat at 0.5 mg/kg, iv measured after 2 to 720 mins by LC-MS/MS analysis; assay type: ADME, organism-based; conditions: in vivo, time 2-720 min
# [21] = Drug concentration in male mouse brain at 10 mg/kg, ip measured after 2 hrs by LC-MS/MS analysis; assay type: ADME, organism-based; conditions: read-out: Ct
# [22] = Upregulation of MAPK signaling pathway related genes in hypothalamus of mouse at 2.5 mg/kg, ip measured after 30 mins by KEGG enrichment analysis relative to control; assay type: functional; conditions: 0.5 h
# [23] = Drug concentration in male mouse plasma at 10 mg/kg, ip measured after 1 hrs by LC-MS/MS analysis; assay type: ADME, organism-based
# [24] = MRT (0 to infinity) in male Sprague-Dawley rat at 2.5 mg/kg, ip measured after 5 to 1440 mins by LC-MS/MS analysis; assay type: ADME, organism-based; conditions: in vivo, time 5-1440 min
# Mus musculus [25] = assay: Upregulation of lipid and atherosclerosis related genes in hypothalamus of mouse at 2.5 mg/kg, ip measured after 30 mins by KEGG enrichment analysis relative to control; assay type: functional; conditions: 0.5 h
# [26] = Upregulation of human papillomavirus infection related genes in hypothalamus of mouse at 2.5 mg/kg, ip measured after 30 mins by KEGG enrichment analysis relative to control; assay type: functional; conditions: 0.5 h
# [27] = Ratio of drug concentration in male mouse brain to plasma at 10 mg/kg, ip measured after 1 hrs by LC-MS/MS analysis; assay type: ADME, organism-based; conditions: brain and plasma, read-out: BPR
# Mus musculus [28] = assay: Upregulation of circadian entrainment related genes in hypothalamus of mouse at 2.5 mg/kg, ip measured after 30 mins by KEGG enrichment analysis relative to control; assay type: functional; conditions: 0.5 h
# Mus musculus [29] = assay: Upregulation of threonine metabolism related genes in hypothalamus of mouse at 2.5 mg/kg, ip measured after 30 mins by KEGG enrichment analysis relative to control; assay type: functional; conditions: 0.5 h
# Mus musculus [30] = assay: Upregulation of amphetamine addiction related genes in hypothalamus of mouse at 2.5 mg/kg, ip measured after 30 mins by KEGG enrichment analysis relative to control; assay type: functional; conditions: 0.5 h
# [31] = Upregulation of cushing syndrome related genes in hypothalamus of mouse at 2.5 mg/kg, ip measured after 30 mins by KEGG enrichment analysis relative to control; assay type: functional; conditions: 0.5 h
# Mus musculus [32] = assay: Upregulation of parathyroid hormone action related genes in hypothalamus of mouse at 2.5 mg/kg, ip measured after 30 mins by KEGG enrichment analysis relative to control; assay type: functional; conditions: 0.5 h
# [33] = Tmax in male Sprague-Dawley rat at 2.5 mg/kg, ip measured after 5 to 1440 mins by LC-MS/MS analysis; assay type: ADME, organism-based; conditions: in vivo, time 5-1440 min
# [34] = Upregulation of herpes simplex virus 1 infection related genes in hypothalamus of mouse at 2.5 mg/kg, ip measured after 30 mins by KEGG enrichment analysis relative to control; assay type: functional; conditions: 0.5 h
# Mus musculus [35] = assay: Upregulation of parathyroid hormone synthesis related genes in hypothalamus of mouse at 2.5 mg/kg, ip measured after 30 mins by KEGG enrichment analysis relative to control; assay type: functional; conditions: 0.5 h
# Mus musculus [36] = assay: Upregulation of purine metabolism related genes in hypothalamus of mouse at 2.5 mg/kg, ip measured after 30 mins by KEGG enrichment analysis relative to control; assay type: functional; conditions: 0.5 h
# Mus musculus [37] = assay: Sedative-hypnotic activity in pentobarbital-induced mouse assessed as decrease in sleep latency at 0.2 to 5 mg/kg, ip; assay type: functional, organism-based; conditions: dose 0.2-5 mg/kg
# Mus musculus [38] = assay: Upregulation of calcium signaling pathway related genes in hypothalamus of mouse at 2.5 mg/kg, ip measured after 30 mins by KEGG enrichment analysis relative to control; assay type: functional; conditions: 0.5 h
smiles,measurement,setting,value
CCn1c2ccccc2c2cc(Nc3ccnc(Nc4ccc(C)c(OC)c4)n3)ccc21,concentration at 2 h,[1],60.4 ng/mL
same,Activity,Mus musculus [2],Active
same,Activity,Mus musculus [3],4.05%
same,Cmax,[4],281 ng/mL
same,Activity,[5],4.05%
same,Activity,Mus musculus [6],Active
same,Activity,[7],2.89%
same,Activity,Mus musculus [8],Active
same,Activity,Mus musculus [9],Active
same,Activity,Mus musculus [10],5.2%
same,Vd(app),[11],5.023 L/kg
same,AUC(0-t),[12],3180 ng·h/mL
same,Activity,[13],4.62%
same,Activity,Mus musculus [14],5.78%
same,Activity,[15],2.89%
same,Activity,Mus musculus [16],Active; Significant Effect Observed
same,Activity,Mus musculus [17],Active
same,Activity,Mus musculus [18],4.05%
same,Cmax,[19],893 ng/mL
same,AUC(0-t),[20],801 ng·h/mL
same,concentration at 2 h,[21],23 ng/mL
same,Activity,[22],6.36%
same,concentration at 1 h,[23],75 ng/mL
same,MRT inf,[24],8.16 h
same,Activity,Mus musculus [25],7.51%
same,Activity,[26],6.36%
same,Kp at 1 h,[27],0.2
same,Activity,Mus musculus [28],3.47%
same,Activity,Mus musculus [29],1.73%
same,Activity,Mus musculus [30],3.47%
same,Activity,[31],4.05%
same,Activity,Mus musculus [32],4.05%
same,Tmax,[33],4 h
same,Activity,[34],5.78%
same,Activity,Mus musculus [35],4.05%
same,Activity,Mus musculus [36],1.73%
same,Activity,Mus musculus [37],Active
same,Activity,Mus musculus [38],4.62%
